# Assay results published in PMC12073402, “A Selective MAP3K1 Inhibitor Facilitates Discovery of NPM1 as a Member of the Network” (Molecules, 2025).
# Experiments:
# Assay in all cases: KiNativ kinome profiling in PANC-1 lysate
# Assay type in all cases: binding
# ULK3 = molecular target: T1, ULK3 (Homo sapiens, UniProt Q6PHR2); settings: Lys1
# T1 construct: endogenous in cells; host or cells: PANC-1 cell lysate
# How it was run: (§1)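 PANC-1 lysates were incubated with 5 μM inhibitor or DMSO, then labeled with a desthiobiotin-ATP acyl-phosphate probe that biotinylates conserved kinase lysines. Tryptic peptides were streptavidin-enriched and quantified by LC-MS/MS, reported as % change in MS signal from duplicate treated and duplicate control samples.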
# CaMKK2 = molecular target: T2, CaMKK2 (Homo sapiens, UniProt Q96RR4)
# T2 construct: endogenous in cells; host or cells: PANC-1 cell lysate
# T2 sequence (Q96RR4 whole entry): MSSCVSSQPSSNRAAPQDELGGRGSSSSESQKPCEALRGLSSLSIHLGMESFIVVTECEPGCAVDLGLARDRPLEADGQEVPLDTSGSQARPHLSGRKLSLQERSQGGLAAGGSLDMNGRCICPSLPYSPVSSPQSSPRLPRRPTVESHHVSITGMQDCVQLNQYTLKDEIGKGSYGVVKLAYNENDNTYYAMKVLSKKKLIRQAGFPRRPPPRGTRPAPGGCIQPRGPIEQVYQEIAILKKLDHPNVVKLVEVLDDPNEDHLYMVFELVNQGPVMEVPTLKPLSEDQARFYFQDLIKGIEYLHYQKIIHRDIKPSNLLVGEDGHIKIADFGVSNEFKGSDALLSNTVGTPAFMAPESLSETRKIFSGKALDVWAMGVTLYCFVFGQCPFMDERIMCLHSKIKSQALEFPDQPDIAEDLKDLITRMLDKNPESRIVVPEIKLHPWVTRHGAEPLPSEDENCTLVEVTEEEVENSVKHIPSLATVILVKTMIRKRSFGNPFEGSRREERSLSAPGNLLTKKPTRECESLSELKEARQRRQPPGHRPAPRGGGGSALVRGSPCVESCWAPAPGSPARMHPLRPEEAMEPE
# How it was run: as §1
# MST3 = molecular target: T3, MST3 (Homo sapiens, UniProt Q9Y6E0); settings: Lys2
# T3 construct: endogenous in cells; host or cells: PANC-1
# How it was run: as §1
# CaMKK1 = molecular target: T4, CaMKK1 (Homo sapiens, UniProt Q8N5S9); settings: Lys2
# T4 construct: endogenous in cells; host or cells: PANC-1 cell lysate
# How it was run: as §1
# MER, TYRO3 = settings: 5 µM; ATP Loop; KIYSGDYYR
# How it was run: as §1
# TAK1 = molecular target: T5, TAK1 (Homo sapiens, UniProt O43318); settings: Lys2
# T5 construct: endogenous in cells; host or cells: PANC-1 cell lysate
# How it was run: as §1
# NDR1, NDR2 = settings: 5 µM; ATP Loop; LSDFGLCTGLKK
# How it was run: as §1
# CK1d, CK1e = settings: 5 µM; Lys2; DVKPDNFLMGLGKK
# How it was run: as §1
# BARK1 = molecular target: T6, BARK1 (Homo sapiens, UniProt P25098); settings: Lys2
# T6 construct: endogenous in cells; host or cells: PANC-1 cell lysate
# How it was run: as §1
# GSK3B = molecular target: T7, GSK3B (Homo sapiens, UniProt P49841); settings: Lys2
# T7 construct: we opted to conduct a kinome screen (KiNativ) in PANC-1 cell lysates; endogenous in cells; host or cells: PANC-1 cell lysate
# How it was run: as §1
# LATS2 = molecular target: T8, LATS2 (Homo sapiens, UniProt Q9NRM7)
# T8 construct: we opted to conduct a kinome screen (KiNativ) in PANC-1 cell lysates; endogenous in cells; host or cells: PANC-1 cell lysate
# T8 sequence (Q9NRM7 whole entry): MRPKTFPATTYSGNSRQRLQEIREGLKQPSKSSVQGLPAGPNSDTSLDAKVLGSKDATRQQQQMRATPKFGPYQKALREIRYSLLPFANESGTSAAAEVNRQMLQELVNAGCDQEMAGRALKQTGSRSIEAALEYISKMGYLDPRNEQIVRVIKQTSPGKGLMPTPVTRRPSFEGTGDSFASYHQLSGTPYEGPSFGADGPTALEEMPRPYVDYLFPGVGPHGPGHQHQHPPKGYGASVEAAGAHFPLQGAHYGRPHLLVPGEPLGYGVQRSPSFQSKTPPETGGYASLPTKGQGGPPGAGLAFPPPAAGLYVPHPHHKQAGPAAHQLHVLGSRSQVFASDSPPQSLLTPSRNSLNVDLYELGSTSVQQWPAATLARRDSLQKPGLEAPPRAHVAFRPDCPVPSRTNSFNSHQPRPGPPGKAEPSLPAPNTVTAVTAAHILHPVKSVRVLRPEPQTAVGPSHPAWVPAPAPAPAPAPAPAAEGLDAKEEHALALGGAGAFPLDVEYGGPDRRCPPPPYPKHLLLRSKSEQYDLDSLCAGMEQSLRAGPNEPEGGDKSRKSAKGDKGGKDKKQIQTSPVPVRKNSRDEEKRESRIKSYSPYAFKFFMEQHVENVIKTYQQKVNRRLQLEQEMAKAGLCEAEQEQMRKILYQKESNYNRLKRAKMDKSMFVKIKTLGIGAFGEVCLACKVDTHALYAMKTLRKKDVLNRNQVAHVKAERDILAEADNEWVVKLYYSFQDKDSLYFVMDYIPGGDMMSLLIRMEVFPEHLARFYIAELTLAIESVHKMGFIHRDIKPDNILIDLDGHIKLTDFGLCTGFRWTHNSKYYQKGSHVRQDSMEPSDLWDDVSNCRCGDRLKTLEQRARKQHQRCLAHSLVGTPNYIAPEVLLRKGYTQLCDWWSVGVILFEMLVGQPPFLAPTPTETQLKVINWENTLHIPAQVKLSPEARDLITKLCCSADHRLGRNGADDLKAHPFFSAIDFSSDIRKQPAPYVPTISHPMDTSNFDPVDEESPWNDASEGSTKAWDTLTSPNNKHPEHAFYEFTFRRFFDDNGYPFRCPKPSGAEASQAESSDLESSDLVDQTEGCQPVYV
# How it was run: as §1
# RSK1 domain2 = molecular target: T9, RSK1 domain2 (Homo sapiens, UniProt Q15418); settings: Lys2
# T9 construct: endogenous in cells; host or cells: PANC-1 cell lysate
# How it was run: as §1
# PIK3CB = molecular target: T10, PIK3CB (Homo sapiens, UniProt P42338); settings: ATP
# T10 construct: endogenous in cells; host or cells: PANC-1 cell lysate
# How it was run: as §1
# MASTL = molecular target: T11, MASTL (Homo sapiens, UniProt Q96GX5)
# T11 construct: endogenous in cells; host or cells: PANC-1
# T11 sequence (Q96GX5 whole entry): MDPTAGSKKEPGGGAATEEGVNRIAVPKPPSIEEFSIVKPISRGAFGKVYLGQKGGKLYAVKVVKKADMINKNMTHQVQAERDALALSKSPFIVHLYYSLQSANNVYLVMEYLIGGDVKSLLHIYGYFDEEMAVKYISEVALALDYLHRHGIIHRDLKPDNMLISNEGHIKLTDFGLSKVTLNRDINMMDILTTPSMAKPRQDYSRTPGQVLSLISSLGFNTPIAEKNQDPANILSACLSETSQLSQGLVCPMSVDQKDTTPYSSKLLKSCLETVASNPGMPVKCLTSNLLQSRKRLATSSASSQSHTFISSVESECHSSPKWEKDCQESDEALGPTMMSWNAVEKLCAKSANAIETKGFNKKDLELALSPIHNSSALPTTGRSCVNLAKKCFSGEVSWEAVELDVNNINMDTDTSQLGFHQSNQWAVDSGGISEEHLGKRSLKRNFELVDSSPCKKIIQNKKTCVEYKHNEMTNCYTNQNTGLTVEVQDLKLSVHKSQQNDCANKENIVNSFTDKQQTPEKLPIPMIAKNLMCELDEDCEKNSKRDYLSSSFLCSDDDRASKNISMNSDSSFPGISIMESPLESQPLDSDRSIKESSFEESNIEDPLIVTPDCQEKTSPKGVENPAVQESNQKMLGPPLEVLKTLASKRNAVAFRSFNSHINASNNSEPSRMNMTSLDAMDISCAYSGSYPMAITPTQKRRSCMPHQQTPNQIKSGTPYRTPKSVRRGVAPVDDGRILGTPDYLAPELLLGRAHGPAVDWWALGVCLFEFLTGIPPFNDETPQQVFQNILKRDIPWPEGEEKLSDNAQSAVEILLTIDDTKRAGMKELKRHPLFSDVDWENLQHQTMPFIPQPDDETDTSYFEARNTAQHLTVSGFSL
# How it was run: as §1
# PIP4K2B = molecular target: T12, PIP4K2B (Homo sapiens, UniProt P78356); settings: ATP
# T12 construct: endogenous in cells; host or cells: PANC-1 cell lysate
# How it was run: as §1
# HER3/ErbB3 = molecular target: T13, HER3/ErbB3 (Homo sapiens, UniProt P21860)
# T13 construct: we opted to conduct a kinome screen (KiNativ) in PANC-1 cell lysates; endogenous in cells; host or cells: PANC-1 cell lysate
# T13 sequence (P21860 20-1342): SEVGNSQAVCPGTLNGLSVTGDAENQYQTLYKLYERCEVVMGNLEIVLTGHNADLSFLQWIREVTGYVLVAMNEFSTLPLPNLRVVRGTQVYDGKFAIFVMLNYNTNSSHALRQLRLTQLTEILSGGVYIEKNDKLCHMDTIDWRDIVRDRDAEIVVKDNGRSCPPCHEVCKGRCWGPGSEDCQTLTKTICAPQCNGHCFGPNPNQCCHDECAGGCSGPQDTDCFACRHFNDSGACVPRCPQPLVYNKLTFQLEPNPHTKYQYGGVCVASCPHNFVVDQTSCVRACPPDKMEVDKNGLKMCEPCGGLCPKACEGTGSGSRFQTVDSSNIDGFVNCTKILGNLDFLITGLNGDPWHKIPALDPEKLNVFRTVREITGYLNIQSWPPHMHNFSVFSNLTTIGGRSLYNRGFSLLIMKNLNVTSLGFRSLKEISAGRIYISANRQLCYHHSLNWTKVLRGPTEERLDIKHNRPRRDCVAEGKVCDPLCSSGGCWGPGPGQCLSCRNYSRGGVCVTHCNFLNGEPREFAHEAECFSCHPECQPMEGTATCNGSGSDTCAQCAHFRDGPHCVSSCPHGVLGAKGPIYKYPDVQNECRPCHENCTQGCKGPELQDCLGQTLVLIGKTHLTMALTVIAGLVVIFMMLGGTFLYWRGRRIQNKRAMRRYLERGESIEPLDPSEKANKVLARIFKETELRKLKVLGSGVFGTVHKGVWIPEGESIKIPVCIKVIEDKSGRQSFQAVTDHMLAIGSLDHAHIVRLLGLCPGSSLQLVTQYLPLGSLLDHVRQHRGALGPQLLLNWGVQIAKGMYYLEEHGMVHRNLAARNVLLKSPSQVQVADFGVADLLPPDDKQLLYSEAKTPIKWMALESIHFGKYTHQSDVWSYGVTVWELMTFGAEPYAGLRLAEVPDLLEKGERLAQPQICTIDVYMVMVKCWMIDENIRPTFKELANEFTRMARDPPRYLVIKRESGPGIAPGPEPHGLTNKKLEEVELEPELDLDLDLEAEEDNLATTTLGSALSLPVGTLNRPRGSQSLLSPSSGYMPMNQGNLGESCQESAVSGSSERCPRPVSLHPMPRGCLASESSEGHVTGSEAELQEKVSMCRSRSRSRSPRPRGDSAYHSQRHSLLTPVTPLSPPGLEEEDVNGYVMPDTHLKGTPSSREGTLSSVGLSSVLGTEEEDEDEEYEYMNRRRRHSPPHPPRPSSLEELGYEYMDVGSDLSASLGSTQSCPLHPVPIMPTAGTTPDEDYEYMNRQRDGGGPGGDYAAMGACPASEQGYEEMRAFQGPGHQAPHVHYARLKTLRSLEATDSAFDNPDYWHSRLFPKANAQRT
# How it was run: as §1
# ULK1 = molecular target: T14, ULK1 (Homo sapiens, UniProt O75385); settings: Lys2
# T14 construct: endogenous in cells; host or cells: PANC-1 cell lysate
# How it was run: as §1
# GAK = molecular target: T15, GAK (Homo sapiens, UniProt O14976); settings: Lys2
# T15 construct: endogenous in cells; host or cells: PANC-1 lysate
# How it was run: as §1
# PKCi = molecular target: T16, PKCi (Homo sapiens, UniProt P41743)
# T16 construct: endogenous in cells; host or cells: PANC-1 cell lysate
# T16 sequence (P41743 whole entry): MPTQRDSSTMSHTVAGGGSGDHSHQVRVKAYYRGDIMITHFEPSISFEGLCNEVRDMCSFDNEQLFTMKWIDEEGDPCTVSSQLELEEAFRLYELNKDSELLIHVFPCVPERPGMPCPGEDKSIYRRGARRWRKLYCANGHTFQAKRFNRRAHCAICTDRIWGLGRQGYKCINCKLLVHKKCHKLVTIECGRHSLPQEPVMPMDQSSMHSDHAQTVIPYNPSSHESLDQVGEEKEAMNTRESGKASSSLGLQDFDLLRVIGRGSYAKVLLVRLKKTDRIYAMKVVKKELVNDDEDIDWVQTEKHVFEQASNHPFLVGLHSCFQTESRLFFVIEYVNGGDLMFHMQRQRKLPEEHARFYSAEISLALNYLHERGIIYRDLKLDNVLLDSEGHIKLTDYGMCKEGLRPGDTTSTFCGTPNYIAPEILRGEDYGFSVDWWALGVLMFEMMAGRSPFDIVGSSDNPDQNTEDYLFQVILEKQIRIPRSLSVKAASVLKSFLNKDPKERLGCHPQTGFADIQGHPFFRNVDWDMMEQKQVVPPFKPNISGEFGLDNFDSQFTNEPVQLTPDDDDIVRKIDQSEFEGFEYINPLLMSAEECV
# How it was run: as §1
# MAP2K1 = molecular target: T17, MAP2K1 (Homo sapiens, UniProt Q02750); settings: Lys2
# T17 construct: endogenous in cells; host or cells: PANC-1 cell lysate
# How it was run: as §1
# CDK9 = molecular target: T18, CDK9 (Homo sapiens, UniProt P50750)
# T18 construct: endogenous in cells; host or cells: PANC-1 cell lysate
# T18 sequence (P50750 whole entry): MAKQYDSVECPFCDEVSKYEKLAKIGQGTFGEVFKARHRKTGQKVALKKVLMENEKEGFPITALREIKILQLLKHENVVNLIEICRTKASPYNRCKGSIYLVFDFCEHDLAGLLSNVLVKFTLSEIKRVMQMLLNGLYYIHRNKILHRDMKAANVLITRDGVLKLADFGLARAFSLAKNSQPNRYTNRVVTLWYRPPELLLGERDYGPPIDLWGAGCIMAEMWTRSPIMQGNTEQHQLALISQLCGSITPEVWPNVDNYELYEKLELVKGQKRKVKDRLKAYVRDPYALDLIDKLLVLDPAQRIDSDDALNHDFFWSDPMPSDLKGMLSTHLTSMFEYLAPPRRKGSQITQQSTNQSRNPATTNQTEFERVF
# How it was run: as §1
smiles,measurement,setting,value
"Cn1cc(-c2cnc3ccc(NC(=O)Nc4ccc(F)c(C(F)(F)F)c4)cc3n2)cn1 [51-106, 1-(4-Fluoro-3-(trifluoromethyl)phenyl)-3-(3-(1-methyl-1H-pyrazol-4-yl)quinoxalin-6-yl)urea]",inhibition at 5 µM,ULK3,≤ 0%
same,inhibition at 5 µM,"CaMKK2; Lys1, LAYNENDNTYYAMKVLSK",2.6%
same,inhibition at 5 µM,"CaMKK2; Lys2, DIKPSNLLVGEDGHIK",≤ 0%
same,inhibition at 5 µM,MST3,4.2%
same,inhibition at 5 µM,CaMKK1,≤ 0%
same,% Inhibition,"MER, TYRO3",NB (NB = No Binding (≤ 0))
same,inhibition at 5 µM,TAK1,≤ 0%
same,% Inhibition,"NDR1, NDR2",NB (NB = No Binding (≤ 0))
same,% Inhibition,"CK1d, CK1e",NB (NB = No Binding (≤ 0))
same,inhibition at 5 µM,BARK1,2.2%
same,inhibition at 5 µM,GSK3B,≤ 0%
same,inhibition at 5 µM,"LATS2; Lys1, VDTHALYAMKTLR",≤ 0%
same,inhibition at 5 µM,"LATS2; Lys2, DIKPDNILIDLDGHIK",1.4%
same,inhibition at 5 µM,RSK1 domain2,6.9%
same,inhibition at 5 µM,PIK3CB; VFGEDSVGVIFKNGDDLR,1.7%
same,inhibition at 5 µM,PIK3CB; VFGEDSVGVIFKNGDDLRQDMLTLQMLR,31.4%
same,inhibition at 5 µM,"MASTL; ATP Loop, GAFGKVYLGQK",8.6%
same,inhibition at 5 µM,"MASTL; Lys1, LYAVKVVK",≤ 0%
same,inhibition at 5 µM,PIP4K2B,≤ 0%
same,inhibition at 5 µM,"HER3/ErbB3; ATP Loop, SPSQVQVADFGVADLLPPDDKQLLYSEAKTPIK",2%
same,inhibition at 5 µM,"HER3/ErbB3; Lys1, GVWIPEGESIKIPVCIKVIEDK",≤ 0%
same,inhibition at 5 µM,ULK1,≤ 0%
same,inhibition at 5 µM,GAK,1%
same,% Inhibition,"PKCi; 5 µM, Lys2, DLKLDNVLLDSEGHIK",NB (NB = No Binding (≤ 0))
same,inhibition at 5 µM,"PKCi; Lys1, […]",≤ 0%
same,inhibition at 5 µM,MAP2K1,11%
same,% Inhibition,"CDK9; 5 µM, Lys2, DMKAANVLITR",NB (NB = No Binding (≤ 0))
same,inhibition at 5 µM,"CDK9; ATP Loop, […]",≤ 0%
